Experimental data as given in patent publication US6958236B2, “Control of gene expression in plants” (priority 2000, dated 2005).
Several values for one entry are separate records, joined by “and”; a condition that tells them apart may be missing. Equal entries are not always repeated.

What was measured:
[1] = system: Transgenic plants harboring DNA from the plasmids pCGS202 and pCGS601; assay: Chemical induction of transgenic maize plants, photon emission of leaves after luciferin spray; assay type: in vivo
Method: This mixture is applied directly to one leaf of a plant while a control formulation mixture containing ethanol instead of tebufenozide is applied to another leaf. Treatments are left on the leaves between 24-48 hours. Plants are then treated by spraying the leaves with a mixture containing 7.5 mM luciferin and 1% surfactant and incubating for 5 minutes. Either whole plants or tissues are placed into a dark box and photon emission is monitored using a digital camera and software that counts the accumulated photons that are emitted. Both the image of the tissue and the total photon count is recorded.
Plants at V5 stage are treated as above. The plants treated with tebufenozide emit substantial amounts of light compared with those treated with ethanol only. The table below contains actual counts of leaf samples from maize plants transformed with pCGS601 and pCGS202.
Late stage post pollinated maize plants are also treated as above. Leaves are analyzed as above and the total photon counts are recorded in the table below.

[2] = system: GAL4×10-Luciferase vector pCGS206; assay: Tobacco BY2 suspension cells bombarded with receptor vector and GAL4x10-Luciferase vector, GUS-normalized luciferase; assay type: cell-based, Nicotiana tobaccum L. cv. Bright Yellow 2; details: absence of the EcR receptor
Method: The GAL4-MV expression vector pCGS432 and the GAL4×10-Luciferase vector pCGS206 are simultaneously delivered into BY2 suspension cells (Nicotania tobacum L. cv. Bright Yellow 2) by high velocity microprojectile bombardment. A β-glucuronidase (GUS) vector is included as an internal control for transfection efficiency between samples. Transfected cells are incubated overnight in the presence and absence of the appropriate chemical ligand (tebufenozide (Teb), RH5889) in BY2 liquid culture media. After incubation, the cells are harvested and lysed by mechanical disruption. Cellular debris is removed by centrifugation at 20,800 g at 4° C. for 10 minutes. Cell lysates are assayed for luciferase expression levels using the Promega Luciferase Kit (Promega cat #E1500) using a Turner Designs TD 20/20 luminometer. GUS expression levels are determined using the GUS-Light kit (Tropix). […]
The GAL4-Manduca EcR-C1 expression vectors (pCGS441, pCGS442, and pCGS443) and the GAL4×10-Luciferase vector pCGS206 (Example 10) are simultaneously delivered into BY2 suspension cells (Nicotiana tobaccum L. cv. Bright Yellow 2) by high velocity microprojectile bombardment. […] Cell lysates are assayed for luciferase expression levels using the Promega Luciferase Kit (cat #E1500) using a Turner Designs TD 20/20 luminometer. β-glucuronidase expression levels are determined using the GUS-Light kit (Tropix). […]

[3] = system: Transgenic maize plants containing pCGS601 and pCGS202; assay: Chemical induction of transgenic maize plants, luciferase activity of leaf extract; assay type: in vivo
Method: A formulation mixture containing 10% of a 2.0 mM tebufenozide solution in ethanol and 1% surfactant is applied directly to the leaves of the transgenic maize plants. The solution is left on the leaves between 18 and 40 hours. Leaves are then frozen in liquid nitrogen and ground to a powder. Subsequently, leaves are homogenized in cell culture lysis reagent (CCLR; 25 mM Tris-phosphate pH 7.8, 2 mM DTT, 2 mM 1,2-diaminoclyclohexane-N,N,N′,N′-tetraacetic acid, 10% glycerol, and 1% triton X-100). After spinning for 7 minutes at 14,000 g to pellet the cell debris, 20 μl of the supernatant is assayed for luciferase activity by the standard method (as described in the preceding examples).
Six plants are treated with chemistry: three with ethanol as control and three with tebufenozide. After 40 hours, plants are assayed for luciferase activity.
To determine fold induction with tebufenozide, leaves of individual plants are compared for activity. Using the same plant, one leaf is treated with ethanol and another with tebufenozide. The plants are incubated for 18 hours and assayed for luciferase activity as described above.

pCGS154 reporter = assay: Transient transfection of S2 Drosophila cells with luciferase reporter and EcR receptor plasmids; assay type: cell-based; details: for Fold Activation With Chemistry Assay #1 / Fold Activation With Chemistry Assay #2: Example 8, 0.2 μM tebufenozide; for Fold Activation With Chemistry: Example 9, 0.2 μM tebufenozide
Method: An in vivo cell based assay is designed to measure transcriptional activation by the receptors of a reporter plasmid. S2 Drosophila cells (ATCC CRL-1963) are transiently transfected with luciferase reporter and receptor expression plasmids using the calcium phosphate precipitation procedure (Di Nocera and David (1983) PNAS 80, 7095-7098). S2 cells are plated in 96 well format at a density of 2×10^5 in 166.6 μl of Schneider's Drosophila media supplemented with antibiotics and 10% heat inactivated fetal bovine serum (GIBO-BRL). The following day, 33.4 μl of a calcium phosphate precipitate containing 3-6 ng of pCGS154 reporter plasmid, 3-6 ng of EcR receptor plasmid along with salmon sperm DNA to a total of 400 ng DNA per well is added. Chemical ligands are added 16-24 hours after DNA addition to the cells. Cells are then harvested and extracted 24 hours after chemistry addition following the procedures for the luciferase assay by centrifuging and resuspending the cell pellets in 100 μl of cell culture lysis reagent (Promega). Luciferase activity is quantitated using chemiluminescence (Promega) using an analytical luminescence model 2001 luminometer.
S2 cells contain Drosophila EcR and USP. The endogenous USP can be used as the heterodimerization partner for EcR or exogenous USP expression plasmid can be added to the assay.
To compare the activities of Manduca and Drosophila EcR, S2 cells are transiently transfected using the above procedure with the reporter plasmid pCGS 154 and either full-length Drosophila EcR, DDV, full-length Manduca EcR, or MMV. Tebufenozide at 0.2 µM and 2 μM is used as the chemical ligand. Luciferase assays are performed as described above. All of the results are normalized as a ratio of activity to the light unit value for the pCGS154 reporter without chemistry.
The activities of the EcR-VP16 chimeras are compared by transiently transfecting S2 cells as described in Example 3. Tebufenozide is added to the cells at 0.2 μM concentration. Results are expressed as fold activation, a ratio of the activity of the constructs with chemistry added as compared to activity of the constructs without chemistry. All results are normalized to the luciferase activity of the pCGS154 reporter without receptor addition.
(§1) The activities of the EcR-VP16 chimeras are compared by transiently transfecting S2 cells as in Example 3. Tebufenozide is added to the cells at 0.2 μM concentration. Results are expressed as fold activation of constructs with chemistry as compared to without chemistry. All results are normalized to the luciferase activity of the pCGS154 reporter without receptor.
as §1, with “chemistry addition.” for “chemistry.”

CCc1ccc(C(=O)NN(C(=O)c2cc(C)cc(C)c2)C(C)(C)C)cc1 [tebufenozide] was tested, and the “Fold Induction” value ([1]; in vivo) was 116 Fold, the “Total Photons Counted” value ([1]; leaf, late stage post pollinated maize plants) was 110,766 and the “Fold Induction” value ([1]; leaf, late stage post pollinated maize plants, tebufenozide vs ethanol) was 30 Fold. For the same molecule, the “Total Photons Counted” value ([1]; leaf, plants at V5 stage, 2.0 mM RH5992 in 1% surfactant, 24-48 hours) was 187,784, the “activation of the luciferase reporter without receptor” value [2] was “does not activate the reporter in the absence of the EcR receptor” and the “Activity (luciferase)” value ([3]; leaves treated with 10% of 2.0 mM tebufenozide solution, 1% surfactant, 40 hours, individual plants 4-6) was 2729 and 745.3 and 2373. For the same molecule, the “fold induction after treatment with tebufenozide” value ([3]; maize, in vivo, 18 h, 0.2 mM) was 10-40 fold and the “induction above the ethanol controls” value ([3]; transgenic maize plants, 40 hours) was “significant induction”.

B1: DBV: EcR chimera: Drosophila melanogaster C+D domains, black cutworm E domain, VP16; SEQ ID NO:73-74 (protein)
chain: MGRDDLSPSSSLNGYSANESCDAKKSKKGPAPRVQEELCLVCGDRASGYHYNALTCEGCKGFFRRSVTKSAVYCCKFGRACEMDMYMRRKCQECRLKKCLAVGMRPECVVPENQCAMKRREKKAQKEKDKMTTSPSSQHGGNGSLASGGGQDFVKKEILDLMTCEPPQHATIPLLPDEILAKCQARNIPSLTYNQLAVIYKLIWYQEGYEQPSEEDLKRVTQTWQSDEDEEESDMPFRQITEMTILTVQLIVEFAKGLPGFAKISQSDQITLLKACSSEVMMLRVARRYDAATDSVLFANNQAYSRDNYRKAGMSYVIEDLLHFCRCMYSMMMDNVHYALLTAIVIFSDRPGLEQPLLVEEIQRYYLNTLRVYILNQNSASPRCPVVFAKILGILTELRTLGMQNSNMCISLKLKNRKLPPFLEEIWDVESRGKLAPPTDVSLGDELHLDGEDVAMAHADALDDFDLDMLGDGDSPGPGFTPHDSAPYGALDMADFEFEQMFTDALGIDEYGG
In the case of B1, the “Fold Activation With Chemistry Assay #1” value (pCGS154 reporter) is reported as 17.37 fold and the “Fold Activation With Chemistry Assay #2” value (pCGS154 reporter) is reported as 3.94 fold.

B2: EBV (protein)
chain: MGREELSPASSVNGCSTDGEARRQKKGPAPRQQEELCLVCGDRASGYHYNALTCEGCKGFFRRSVTKNAVYICKFGHACEMDMYMRRKCQECRLKKCLAVGMRPECVVPETQCAQKRKEKKAQREKDKLPVSTTTVDDHMPPIMQCDPPPPEAARILECLQHEVVPRFLSEKLMEQNRLKNIPPLTANQQFLIARLVWYQEGYEQPSEEDLKRVTQTWQSDEDEEESDMPFRQITEMTILTVQLIVEFAKGLPGFAKISQSDQITLLKACSSEVMMLRVARRYDAATDSVLFANNQAYSRDNYRKAGMSYVIEDLLHFCRCMYSMMMDNVHYALLTAIVIFSDRPGLEQPLLVEEIQRYYLNTLRVYILNQNSASPRCPVVFAKILGILTELRTLGMQNSNMCISLKLKNRKLPPFLEEIWDVESRGKLAPPTDVSLGDELHLDGEDVAMAHADALDDFDLDMLGDGDSPGPGFTPHDSAPYGALDMADFEFEQMFTDALGIDEYGG
For B2, the “Fold Activation With Chemistry Assay #1” value (pCGS154 reporter) was 975.0 fold and the “Fold Activation With Chemistry Assay #2” value (pCGS154 reporter) was 273.7 fold.

B3: CCV: EcR chimera: Chironomus tentans C+D and E domains, VP16; SEQ ID NO:87-88 (protein)
chain: MKLDDGNMSVHMGDGLDGKKSSSKKGPVPRQQEELCLVCGDRASGYHYNALTCEGCKGFFRRSVTKNAVYCCKFGHECEMDMYMKRKCQECRLKKCLAVGMRPECVVPENQCAIKRKEKKAQKEKDKVPGIVGSNTSSSSLLNQSLNNGSLKNLEISYREELLEQLMKCDPPPHPMQQLLPEKLLMENRAKGTPQLTANQVAVIYKLIWYQDGYEQPSEEDLKRITTELEEEEDQEHEANFRYITEVTILTVQLVVEFAKGLPAFIKIPQEDQITLLKACSSEVMMLRMARRYDHDSDSILFANNTAYTKQTYQLAGMEETIDDLLHFCRQMYALSIDNVEYALLTAIVIFSDRPGLEKAEMVDIIQSYYTETLKVYIANRHGGESRCSVQFAKLLGILTELRTMGNKNSEMCFSLKLRNRKLPRFLEEVWDVGDVKLAPPTDVSLGDELHLDGEDVAMAHADALDDFDLDMLGDGDSPGPGFTPHDSAPYGALDMADFEFEQMFTDALGIDEYGG
With B3 the “Fold Activation With Chemistry” value (pCGS154 reporter) was 2.0 fold.

B4: MCV: EcR chimera: Manduca sexta C+D domains, Chironomus tentans E domain, VP16; SEQ ID NO:91-92 (protein)
chain: MGREELSPASSINGCSTDGEPRRQKKGPAPRQQEELCLVCGDRASGYHYNALTCEGCKGFFRRSVTKNAVYICKFGHACEMDMYMRRKCQECRLKKCLAVGMRPECVVPESTCKNKRREKEAQREKDKLPVSTTTVDDHMPAIMQCDPPPPEAARIHEVVPRFLTEKLMEQNRLKNVTPLSANQKSLIARLVWYQDGYEQPSEEDLKRITTELEEEEDQEHEANFRYITEVTILTVQLVVEFAKGLPAFIKIPQEDQITLLKACSSEVMMLRMARRYDHDSDSILFANNTAYTKQTYQLAGMEETIDDLLHFCRQMYALSIDNVEYALLTAIVIFSDRPGLEKAEMVDIIQSYYTETLKVYIANRHGGESRCSVQFAKLLGILTELRTMGNKNSEMCFSLKLRNRKLPRFLEEVWDVGDVKLAPPTDVSLGDELHLDGEDVAMAHADALDDFDLDMLGDGDSPGPGFTPHDSAPYGALDMADFEFEQMFTDALGIDEYGG
With B4 the “Fold Activation With Chemistry” value (pCGS154 reporter) was 553.3 fold.
